Results on 2 molecules are retold here after patent US11467151B1, “Phosphorescence oxygen analyzer and uses thereof” (priority 2021, dated 2022).

This test deals with striatal tissue. The test can be described thus: Striatal cellular respiration (oxygen consumption of striatal fragments, phosphorescence oxygen analyzer). It is filed as cell-based, C57BL6 male mice. Conditions: for effect on striatal cellular respiration (in words): in vitro, viable striatal tissue; for time over which the inhibitory effects remained relatively stable: with glucose, repeated additions of toxin (FIG. 3B, FIG. 4B). As to the method: C57BL6 male mice (13 weeks old, about 20 g weight) were housed at 22° C. with 60% humidity and 12-h light-dark cycles. Rodent chow and filtered water were provided ad libitum. The study was approved from the UAE University Animal Research Ethics Committee (Ref. ERA-20196026). Diethyl ether was used for anesthesia.
The studied mice were not treated in any way prior to striatal tissue collection. The skin and skull were cut to expose the whole brain, which was then rapidly removed and placed in a freshly prepared Pd phosphor solution: Phosphate-buffered saline (PBS: 137 mM NaCl, 2.7 mM KCl, 4.3 mM Na2HPO4, and 1.4 mM KH2PO4, pH 7.4), 3.0 μM Pd phosphor, 0.5% fat-free albumin, with and without 5.0 mM glucose. The brain region that contained the striatum was dissected. The specimen weight was determined prior to placing it in the oxygen measuring vial that contained 2.0 mL of the Pd phosphor solution. A small portion of the specimen was stored at −80° C. for Western blot analysis.
For oxygen analysis, our previously described phosphorescence oxygen analyzer was used to monitor oxygen consumption at 25° C. in the studied striatal fragments. In reaction vials sealed from air, oxygen concentration decreased linearly with time (zero-order kinetics); the rate (k, in μM O2 min^−1) was thus the negative of d [O21/dt. The calibration reactions utilized glucose oxidase (D-glucose+O2→D-glucono-δ-lactone+H2O2) and […]. Dissolved oxygen in the solution was also depleted by the addition of glucose oxidase plus […]. Potassium cyanide (KCN, added from a stock prepared in dH2O immediately before use) inhibited respiration, confirming oxygen was consumed in cytochrome oxidase.

Consider `C[n+]1ccc(-c2ccccc2)cc1.[I-]` [MPP+, 1-Methyl-4-phenylpyridinium iodide], for which the “effect on striatal cellular respiration (in words)” value is on record as “inhibited” and the “time over which the inhibitory effects remained relatively stable” value is given as “about 300 min”. Further, the “rate of respiration (k) in the presence of MPP+” value (1.25 mM MPP+, Pd phosphor solution with 5.0 mM glucose, 25° C., n=3, p=0.048) came to 0.077±0.006 μM O2 min^−1 mg^−1.
For the molecule `C=C(C)[C@H]1Cc2c(ccc3c2O[C@@H]2COc4cc(OC)c(OC)cc4[C@@H]2C3=O)O1` [rotenone, Rotenone], the “effect on striatal cellular respiration (in words)” value is recorded as “inhibited” and the “time over which the inhibitory effects remained relatively stable” value is “about 100 min”. Moreover, where the note is “10 μM rotenone, Pd phosphor solution with 5.0 mM glucose, 25° C., mean±SD, n=5, without toxin 0.141 (n=7), P=0.073”, the “rate of respiration (k) in the presence of rotenone” value is 0.092±0.022 μM O2 min^−1 mg^−1.
